SMILES strings stand for the structures.

The target of the experiment is T1, PDE2A (Mus musculus, UniProt Q922S4).
T1 construct: from tissue; host or cells: living female CD-1 mice (brain, in vivo)
T1 sequence (Q922S4 1-939): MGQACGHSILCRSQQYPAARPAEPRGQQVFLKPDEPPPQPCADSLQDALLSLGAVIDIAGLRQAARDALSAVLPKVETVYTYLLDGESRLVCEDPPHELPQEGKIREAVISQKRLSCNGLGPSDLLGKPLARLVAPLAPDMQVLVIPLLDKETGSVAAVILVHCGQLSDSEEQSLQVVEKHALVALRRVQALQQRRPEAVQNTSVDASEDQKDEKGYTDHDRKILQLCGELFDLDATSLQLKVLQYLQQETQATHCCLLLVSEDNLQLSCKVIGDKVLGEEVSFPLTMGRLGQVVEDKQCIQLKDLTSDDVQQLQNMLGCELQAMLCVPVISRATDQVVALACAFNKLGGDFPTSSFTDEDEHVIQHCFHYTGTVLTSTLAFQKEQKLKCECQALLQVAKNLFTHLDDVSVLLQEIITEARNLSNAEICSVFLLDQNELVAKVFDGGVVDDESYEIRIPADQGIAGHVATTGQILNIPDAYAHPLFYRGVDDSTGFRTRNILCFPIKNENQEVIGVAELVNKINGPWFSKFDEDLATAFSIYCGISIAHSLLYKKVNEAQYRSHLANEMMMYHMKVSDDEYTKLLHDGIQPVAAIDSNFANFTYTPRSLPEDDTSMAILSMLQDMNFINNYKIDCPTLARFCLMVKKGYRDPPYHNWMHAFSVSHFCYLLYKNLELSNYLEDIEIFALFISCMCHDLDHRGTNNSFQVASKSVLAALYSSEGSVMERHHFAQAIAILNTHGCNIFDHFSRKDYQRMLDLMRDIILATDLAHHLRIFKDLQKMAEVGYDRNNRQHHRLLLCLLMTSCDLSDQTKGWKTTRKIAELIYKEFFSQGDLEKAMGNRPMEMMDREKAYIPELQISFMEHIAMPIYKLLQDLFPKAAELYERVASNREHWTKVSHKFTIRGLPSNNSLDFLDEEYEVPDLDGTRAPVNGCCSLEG
As to the kind of experiment: small-animal PET/MR baseline studies in mice. It counts as in vivo. As to conditions: CD-1 mice, i.v. 9.7 ± 1.3 MBq, 0-55 min p.i., n = 4. The protocol:
For PET/MR baseline studies of [^18F]TA3 in anaesthetized CD-1 mice, the radioligand was injected intravenously (9.7 ± 1.3 MBq, SAEOS ~70 GBq/µmol, n = 4), and whole body scans were performed for 60 min in listmode with a Mediso nanoScan PET/MR scanner followed by dynamic reconstruction. Time-activity curves (TACs) were generated for regions of interest such as whole brain, striatum, and cerebellum (Figure 8).
Female CD-1 mice (n = 4; age: 8 weeks; weight: 28.8 ± 1.2 g; supplier: Medizinisch-Experimentelles Zentrum Leipzig, Leipzig, Germany) were housed under a 12 h:12 h light-dark cycle at 26 °C in a vented animal cabinet. The animals received an injection of 9.7 ± 1.3 MBq of [^18F]TA3 into the tail vein followed by a 60 min PET/MR scan (Mediso nanoScan®, Budapest, Hungary). Each PET image was corrected for random coincidences, dead time, scatter and attenuation (AC), based on a whole body (WB) MR scan.
The reconstruction parameters for the list mode data are: 3D-ordered subset expectation maximization (OSEM), 4 iterations, 6 subsets, energy window: 400–600 keV, coincidence mode: 1–5, ring difference: 81. […]
The respective brain regions were identified using the MR information from the GRE scan. The activity data is expressed as mean standardized uptake value (SUV) of the overall ROI.

`COc1ccc2nnc3c(C)nc(-c4cc(OCCC[18F])ccc4F)n3c2n1` [[^18F]TA3]: the “time-activity curve in cerebellum” value was “constantly increased uptake in the cerebellum” and the “time-activity curve in striatum” value is recorded as “fast wash out of activity from the striatum”.

The record behind these values is article PMC6272448, “Synthesis, ^18F-Radiolabelling and Biological Characterization of Novel Fluoroalkylated Triazine Derivatives for in Vivo Imaging of Phosphodiesterase 2A in Brain via Positron Emission Tomography” (Molecules, 2015).
